Source: article PMC9181938, “Fluorinated Analogues of Lepidilines A and C: Synthesis and Screening of Their Anticancer and Antiviral Activity” (Molecules, 2022)
Like-named read-outs stand apart in the source and are kept apart here.

Legend:
[1] = Cytotoxicity MTT assay (0.1–1000 µM), CC50; assay type: cell-based, Macaca mulatta; details: Macaca mulatta, LLC-MK2 cells, LLC-MK2, MTT, 48 h; read-out: CC50 Normal Cell Lines LLC-MK2
LLC-MK2 cells = assay: Cytotoxicity MTT assay (0.1–1000 µM), CC50; assay type: cell-based, Macaca mulatta; details: Table S2, range 0.1-1000 µM, LLC-MK2; read-out: Cell line (CC50 M) LLC-MK2
[2] = Cytotoxicity screening at 10 µM (MTT); assay type: cell-based, Cercopithecus aethiops; details: Cercopithecus aethiops, Vero cells, read-out: Cell line (viability %) Vero
[3] = Cytotoxicity screening at 10 µM (MTT); assay type: cell-based, Macaca mulatta; details: Macaca mulatta, LLC-MK2 cells, read-out: Cell line (viability %) LLC-MK2
NCTC clone 929 cells = assay: Cytotoxicity screening at 10 µM (MTT); assay type: cell-based, Mus musculus; details: 48 h
[4] = Cytotoxicity screening at 10 µM (MTT); assay type: cell-based, Human; details: human, MRC-5 cells, read-out: Cell line (viability %) MRC-5
[5] = Cytotoxicity screening at 10 µM (MTT); assay type: cell-based, Human; details: human, HeLa cells, read-out: Cell line (viability %) HeLa
[6] = test system: Human parainfluenza virus type 3 (HPIV-3); assay: Antiviral activity assay (0.1–1000 µM), IC50; assay type: cell-based
Experimental: (§1) Antiviral properties of compounds 1e–1g, 1e[PF6], 8a–8d, and 9a were assessed against five viruses: Human herpesvirus 1 (HSV-1, VR-539), Human parainfluenza virus type 3 (HPIV-3, VR-93), Human adenovirus 5 (AdV5, VR-5), Human herpesvirus 5 (HCMV, VR-977), and Encephalomyocarditis virus (EMCV, VR-1479). Viruses were purchased from the American Type Culture Collection (ATCC, Manassas, VA, USA).
(§2) All tested compounds were dissolved in DMSO (dimethyl sulfoxide, Sigma-Aldrich, Darmstadt, Germany) and then suspended in Minimum Essential Medium (MEM; Sigma-Aldrich, Darmstadt, Germany) supplemented with 2% heat-inactivated fetal bovine serum (FBS; Sigma-Aldrich, Darmstadt, Germany), 2 mM L-glutamine (Sigma-Aldrich, Darmstadt, Germany), and 100 units/mL penicillin G with […] streptomycin (Sigma-Aldrich, Darmstadt, Germany).
(§3) Investigated cells were propagated in Minimum Essential Medium (MEM; Sigma-Aldrich, Darmstadt, Germany) supplemented with 10% heat-inactivated fetal bovine serum (FBS; Sigma-Aldrich, Darmstadt, Germany) and 100 units/mL penicillin G with […] streptomycin (Sigma-Aldrich, Darmstadt, Germany). After reaching 80–90% confluency, cells were harvested with trypsin (Life Technologies, Warsaw, Poland) and seeded into 96-well microplates at 2 × 10^5 cells/mL after overnight incubation of cells at 37 °C in a humidified atmosphere containing 5% CO2.
(§4) The culture medium was removed from confluent cells grown in 96-well microplates, and the cells were inoculated with virus solutions in MEM supplemented with 2% FBS and antibiotics (HSV-1 MOI 0.005, 1000 virions/mL; HPIV-3 MOI 0.01, 2000 virions/mL; AdV5 MOI 0.005, 1000 virions/mL; EMCV 0.005, 1000 virions/mL; HCMV 20 PFU/well (plaque-forming units per well). After a 1-h (HSV-1, HPIV-3, AdV5, and EMCV) or 2-h adsorption period (HCMV), residual viral particles were removed, and infected cells were further incubated with MEM supplemented with 2% FBS containing compound concentrations in the range from 0.1 to 1000 µM [38]. All experiments were carried out in triplicate. The cell monolayers were incubated with the investigated compounds at 37 °C in a humidified atmosphere containing 5% CO2 until a cytopathic effect (CPE) was visible. Viral infection was evaluated by the MTT assay (as described previously) or plaque reduction assay. HCMV plaques were counted under an inverted microscope, Olympus IX73 (Olympus, Tokyo, Japan). Antiviral activity was expressed as the concentration required to reduce the number of viral plaques to 50% of the control (virus-infected but untreated).

[7] = test system: Encephalomyocarditis virus (EMCV); assay: Antiviral screening at 10 µM; assay type: cell-based; details: Cardiovirus A, EMCV-infected cells, read-out: Cell line (viability %) EMCV
Experimental: as §1, with “1a, 1c, 1a[PF6], 1c[PF6], 9b[PF6], 9c[PF6], 10a–10d, 2a,” for “1e–1g, 1e[PF6], 8a–8d,”, “2b” for “9a”
as §2
(§5) Vero, LLC-MK2, NCTC clone 929, MRC-5, and HeLa cells were propagated in Minimum Essential Medium (MEM; Sigma-Aldrich, Darmstadt, Germany) supplemented with 10% heat-inactivated fetal bovine serum (FBS; Sigma-Aldrich, Darmstadt, Germany) and 100 units/mL penicillin G with […] streptomycin (Sigma-Aldrich, Darmstadt, Germany). Upon reaching 80–90% confluency, cells were harvested with 0.25% trypsin in 1 mM EDTA (Life Technologies, Warsaw, Poland) and seeded onto 96-well microplates at 2 × 10^5 cells/mL. After overnight incubation of cells at 37 °C in a humidified atmosphere containing 5% CO2, the culture medium was removed, and cells were inoculated with the respective virus solution in MEM supplemented with 2% FBS and antibiotics (HSV-1 MOI 0.005, 1000 virions/mL; HPIV-3 MOI 0.01, 2000 virions/mL; AdV5 MOI 0.005, 1000 virions/mL, EMCV MOI 0.005, 1000 virions/mL, HCMV 20 PFU (plaque forming units) per well). After a 1-h (HSV-1, HPIV-3, AdV5, and EMCV) or 2-h adsorption period (HCMV), the residual virus was removed, and the infected cells were further incubated with a 100 μL freshly prepared solution of tested compounds diluted with a maintenance medium supplemented with 2% FBS to obtain compound concentrations of 10 µM. The final concentration of DMSO in the medium was 0.1%. All experiments were carried out in triplicate. The cells monolayers were incubated with the compounds at 37 °C in a humidified atmosphere containing 5% CO2 until the typical cytopathic effect (CPE) was visible. Viral infection was evaluated by the MTT assay or plaque reduction assay (HCMV). After incubation with drugs, the cells were treated with 3-(4,5-dimethylthiazol-2-yl)-2,5-diphenyltetrazolium bromide dye solution (MTT, Sigma-Aldrich, Darmstadt, Germany) (25 μL, 5 mg/mL) for 2 h and lysed with solvent solution (100 μL) containing: DMF (Sigma-Aldrich, Darmstadt, Germany) (45 mL), SDS (Sigma-Aldrich, Darmstadt, Germany) (13.5 g), and distilled water (55 mL). After overnight incubation at 37 °C, the optical density at 550 nm and a reference wavelength of 670 nm were measured on a microplate spectrophotometer, Varioskan Lux (Thermo Fisher Scientific, Waltham, MA, USA). The number of HCMV plaques was counted under an inverted microscope Olympus IX73 (Olympus, Tokyo, Japan).

[8] = test system: Human adenovirus 5 (AdV5); assay: Antiviral screening at 10 µM; assay type: cell-based; details: AdV5-infected cells
Experimental: as §1, with “1a, 1c, 1a[PF6], 1c[PF6], 9b[PF6], 9c[PF6], 10a–10d, 2a,” for “1e–1g, 1e[PF6], 8a–8d,”, “2b” for “9a”
as §2, §5

[9] = test system: Human herpesvirus 1 (HSV-1); assay: Antiviral screening at 10 µM; assay type: cell-based; details: antiviral screening, HSV-1-infected cells
Experimental: as §1, with “1a, 1c, 1a[PF6], 1c[PF6], 9b[PF6], 9c[PF6], 10a–10d, 2a,” for “1e–1g, 1e[PF6], 8a–8d,”, “2b” for “9a”
as §2, §5

[10] = test system: Human parainfluenza virus type 3 (HPIV-3); assay: Antiviral screening at 10 µM; assay type: cell-based; details: antiviral screening, HPIV-3-infected cells
Experimental: as §1, with “1a, 1c, 1a[PF6], 1c[PF6], 9b[PF6], 9c[PF6], 10a–10d, 2a,” for “1e–1g, 1e[PF6], 8a–8d,”, “2b” for “9a”
as §2, §5

[11] = Cytotoxicity MTT assay (0.1–1000 µM), CC50; assay type: cell-based, Cercopithecus aethiops; details: Cercopithecus aethiops, Vero cells, read-out: CC50 Normal Cell Lines Vero
[12] = Cytotoxicity MTT assay (0.1–1000 µM), CC50; assay type: cell-based, Mus musculus; details: Mus musculus, NCTC clone 929 cells, NCTC clone 929, MTT, 48 h; read-out: CC50 Normal Cell Lines NCTC Clone 929
[13] = Cytotoxicity MTT assay (0.1–1000 µM), CC50; assay type: cell-based, Human; details: human, MRC-5 cells, MRC-5, MTT, read-out: CC50 Normal Cell Lines MRC-5
[14] = Cytotoxicity MTT assay (0.1–1000 µM), CC50; assay type: cell-based, Human; details: human, HeLa cells, MTT, 48 h, read-out: CC50 Cancer Cell Lines HeLa
[15] = Cytotoxicity MTT assay (0.1–1000 µM), CC50; assay type: cell-based, Human; details: human, A549 cells, read-out: CC50 Cancer Cell Lines A549
[16] = Cytotoxicity MTT assay (0.1–1000 µM), CC50; assay type: cell-based, Human; details: human, HepG2 cells, read-out: CC50 Cancer Cell Lines HepG2
[17] = test system: Human herpesvirus 5 (HCMV); assay: Antiviral activity assay (0.1–1000 µM), IC50, plaque reduction; assay type: cell-based; details: Human betaherpesvirus 5, 20 PFU/well
Experimental: as §1, §2, §3, §4

[18] = test system: Encephalomyocarditis virus (EMCV); assay: Antiviral activity assay (0.1–1000 µM), IC50; assay type: cell-based; details: Cardiovirus A, MOI 0.005, read-out: IC50 EMCV
Experimental: as §1, §2, §3, §4

[19] = test system: Human adenovirus 5 (AdV5); assay: Antiviral activity assay (0.1–1000 µM), IC50; assay type: cell-based; details: Human mastadenovirus C; AdV5, MOI 0.005; read-out: IC50 AdV5
Experimental: as §1, §2, §3, §4

[20] = test system: Human herpesvirus 1 (HSV-1); assay: Antiviral activity assay (0.1–1000 µM), IC50; assay type: cell-based; details: Human alphaherpesvirus 1; HSV-1, MOI 0.005
Experimental: as §1, §2, §3, §4

[21] = Human respirovirus 3, HPIV-3, MOI 0.01, read-out: IC50 HPIV-3

Row | IC50 [17] [µM] | IC50 [18] [µM] | IC50 [19] [µM] | IC50 [20] [µM] | IC50 [6, 21] [M] | melting point [°C] | SMILES | CC50 at 48 h [1] [µM] | CC50 at 48 h [11] [µM] | CC50 at 48 h [12] [µM] | CC50 at 48 h [13] [µM] | CC50 at 48 h [14] [µM] | CC50 at 48 h [15] [µM] | CC50 at 48 h [16] [µM] | further results
1 |  |  |  |  |  |  | Cc1c(C)[n+](Cc2ccccc2)cn1Cc1ccccc1 [Compound 1a, lepidiline A, reference compound] | < 80 |  |  |  |  |  |  | CC50 (LLC-MK2 cells): 67.7 ± 2.52 µM; viability at 48 h, 10 µM [2]: 90.5%; viability at 48 h, 10 µM [3]: 76.3%; Cell line (viability %) NCTC clone 929 (NCTC clone 929 cells): 86.0%; viability at 48 h, 10 µM [4]: 90.2%; viability at 48 h, 10 µM [5]: 43%; IC50 ([6]; Table S4, range 0.1-1000 µM, HPIV-3, read-out: IC50 (M) HPIV-3): > 6.77e-05 M; viability at 10 µM [7]: 7.4%; Cell line (viability %) AdV5 [8]: 45.8%; Cell line (viability %) HSV-1 [9]: 48.0%; Cell line (viability %) HPIV-3 [10]: 86.0%
2 | > 36.7 | > 48.3 | > 0.039 | > 38 | > 5.9e-05 | 108 to 110 | Cc1c(C)[n+](Cc2cccc(OC(F)(F)F)c2)cn1Cc1ccccc1.[Cl-] [Compound 1f, 1-Benzyl-4,5-dimethyl-3-[3-(trifluoromethoxy)benzyl]imidazolium chloride] | 59 ± 1 | 38 ± 4 | 48.3 ± 2.89 | 36.7 ± 2.31 | 0.039 ± 0.001 | 1.6 ± 0.173 | 152 ± 2 | 
3 | > 206 | > 257 | > 20 | > 250 | > 0.000327 | 124 to 126 | Cc1c(C)[n+](OCc2ccccc2)cn1Cc1cccc(F)c1.[Br-] [Compound 8a, 3-Benzyloxy-1-(3-fluorobenzyl)-4,5-dimethylimidazolium bromide] | 327 ± 7.64 | 250 ± 10 | 257 ± 10.4 | 206 ± 8.61 | 20 ± 3.46 | 7.5 ± 0.5 | 361.7 ± 2.89 | 
